Test results taken from ChEMBL document CHEMBL5244273, “Tuberculosis: An Overview of the Immunogenic Response, Disease Progression, and Medicinal Chemistry Efforts in the Last Decade toward the Development of Potential Drugs for Extensively Drug-Resistant Tuberculosis Strains” (J Med Chem, 2021).
≈ marks a conversion by molar mass, not a printed value.

Experiments:
[1] = test system: Mycobacterium tuberculosis; assay: Antimycobacterial activity against Mycobacterium tuberculosis H37Rv assessed as inhibition of bacterial growth by resazurin dye based fluorescence analysis; type: functional
[2] = test system: Mycobacterium tuberculosis; assay: Potentiation of ethionamide induced antibacterial activity against Mycobacterium tuberculosis H37Rv expressing GFP incubated for 5 days by fluorescence based analysis; type: functional, organism-based; details: 120 h
[3] = test system: Mycobacterium tuberculosis; assay: Antimycobacterial activity against Mycobacterium tuberculosis H37Rv infected in human THP-1 cells assessed as inhibition of bacterial growth; type: functional, organism-based

Compound	MIC [1] [µM]	EC50 [2] [nM]	IC50 [3] [nM]
COc1ccc(Cn2cc(-c3ccc(S(=O)(=O)NCCO)cc3)nn2)cc1	0.1 (≈ 0.0388 µg/mL)	–	–
NC(=O)CNS(=O)(=O)c1ccc(-c2cn(Cc3ccc(F)cc3)nn2)cc1	0.1 (≈ 0.0389 µg/mL)	–	–
Cc1cc(Cn2nnc(-c3ccc(S(=O)(=O)NCC(N)=O)cc3)n2)ccn1	0.1 (≈ 0.0387 µg/mL)	–	–
COc1cc(-c2nnn(Cc3ccc(C#N)cn3)n2)ccc1S(=O)(=O)NCCO	0.1 (≈ 0.0415 µg/mL)	–	–
NC(=O)CNS(=O)(=O)c1ccc(-c2cn(CC3CCC(F)(F)CC3)nn2)cc1	0.1 (≈ 0.0413 µg/mL)	–	–
O=S(=O)(NCCO)c1ccc(-c2nnn(Cc3ccc(F)cn3)n2)cc1F	0.1 (≈ 0.0396 µg/mL)	–	–
CC(c1ccc(F)cc1)n1nnc(-c2ccc(S(=O)(=O)NCCO)cc2)n1 (configuration not stated)	0.1 (≈ 0.0391 µg/mL)	–	–
O=S(=O)(NCCO)c1ccc(-c2cn(Cc3ccc(F)cn3)nn2)cc1	0.1 (≈ 0.0377 µg/mL)	–	–
N#CCNS(=O)(=O)c1ccc(-c2nnn(Cc3ccncn3)n2)cc1	0.1 (≈ 0.0356 µg/mL)	–	–
O=S(=O)(NCCO)c1ccc(-c2nnn(CC3CCCCO3)n2)cc1F (configuration not stated)	0.1 (≈ 0.0385 µg/mL)	–	–
O=S(=O)(NCCO)c1ccc(-c2nnn(CC3CCCCO3)n2)c(F)c1F (configuration not stated)	0.1 (≈ 0.0403 µg/mL)	–	–
NC(=O)CNS(=O)(=O)c1ccc(-c2nnn(Cc3ccc(Cl)cn3)n2)cc1	0.1 (≈ 0.0408 µg/mL)	–	–
C[C@@H](O)CNS(=O)(=O)c1ccc(-c2cn(Cc3ccc(F)cc3)nn2)cc1	0.1 (≈ 0.039 µg/mL)	–	–
O=C(CCC(F)(F)F)N1CCC2(CC1)CC(Br)=NO2	–	< 38	50
COc1cnc(Cn2nnc(-c3ccc(S(=O)(=O)NCC#N)cc3)n2)cn1	0.1 (≈ 0.0386 µg/mL)	–	–
C[C@H](c1ccc(F)cn1)n1nnc(-c2ccc(S(=O)(=O)NCCO)cc2)n1	0.1 (≈ 0.0392 µg/mL)	–	–
O=S(=O)(NCCO)c1c(F)cc(-c2nnn(Cc3ccc(F)cn3)n2)cc1F	0.1 (≈ 0.0414 µg/mL)	–	–
O=S(=O)(NCCO)c1ccc(-c2nnn(CC3CCOCC3)n2)cc1F	0.1 (≈ 0.0385 µg/mL)	–	–
Cc1ccc(Cn2nnc(-c3ccc(S(=O)(=O)NCCO)cc3)n2)cn1	0.1 (≈ 0.0374 µg/mL)	–	–
O=S(=O)(NCCO)c1ccc(-c2nnn(CC3CCOCC3)n2)cc1	0.1 (≈ 0.0367 µg/mL)	–	–
COc1cc(-c2nnn(Cc3ccncc3)n2)ccc1S(=O)(=O)NCCO	0.1 (≈ 0.039 µg/mL)	–	–
N#CCNS(=O)(=O)c1ccc(-c2nnn(Cc3ccncc3)n2)cc1	0.1 (≈ 0.0355 µg/mL)	–	–
CC(c1ccc(F)cc1)n1cc(-c2ccc(S(=O)(=O)NCCO)cc2)nn1 (configuration not stated)	0.1 (≈ 0.039 µg/mL)	–	–
COc1cc(-c2nnn(Cc3ccncc3)n2)ccc1S(=O)(=O)NCC(N)=O	0.1 (≈ 0.0403 µg/mL)	–	–
Cc1ccc(Cn2nnc(-c3ccc(S(=O)(=O)NCC(N)=O)cc3)n2)nc1	0.1 (≈ 0.0387 µg/mL)	–	–
O=S(=O)(NCCO)c1ccc(-c2cn(Cc3ccc(F)cc3)nn2)cc1	0.1 (≈ 0.0376 µg/mL)	–	–

Compound	MIC [1] [µM]	EC50 [2] [nM]	IC50 [3] [nM]
O=S(=O)(NCCO)c1ccc(-c2nnn(Cc3cccnc3)n2)cc1	0.1 (≈ 0.036 µg/mL)	–	–
COC1=NOC2(CCN(C(=O)CCCl)CC2)C1	–	< 38	50
COc1ccc(Cn2nnc(-c3ccc(S(=O)(=O)NCC#N)cc3)n2)cn1	0.1 (≈ 0.0385 µg/mL)	–	–
O=S(=O)(NCCO)c1ccc(-c2nnn(Cc3ccc(F)cn3)n2)cc1Cl	0.1 (≈ 0.0413 µg/mL)	–	–
O=C(CCCl)N1CCC2(CC1)CC(C(F)(F)F)=NO2	–	< 38	50
CCC1=NOC2(CCN(C(=O)CCC(F)(F)F)CC2)C1	–	< 38	50
CCOC1=NOC2(CCN(C(=O)CCC(F)(F)F)CC2)C1	–	< 38	50
Cc1cc(S(=O)(=O)NCCO)c(F)cc1-c1nnn(Cc2ccc(F)cn2)n1	0.1 (≈ 0.041 µg/mL)	–	–
O=C(CCC(F)(F)F)N1CCC2(CC1)CC(OCC(F)(F)F)=NO2	–	< 38	50
O=C(CCC(F)(F)F)N1CCC(c2cnc(F)c(F)c2)CC1	–	< 150	10
O=S(=O)(NCCO)c1ccc(-c2nnn(Cc3ccc(F)cc3)n2)cc1F	0.1 (≈ 0.0395 µg/mL)	–	–
CCCOC1=NOC2(CCN(C(=O)CCC(F)(F)F)CC2)C1	–	< 38	50
CCCCCCOC1=NOC2(CCN(C(=O)CCC(F)(F)F)CC2)C1	–	< 38	50
O=C(CCC(F)(F)F)N1CCC(c2ncc(F)cc2F)CC1	–	< 150	10
NC(=O)CNS(=O)(=O)c1ccc(-c2nnn(Cc3ccncc3)n2)cc1	0.1 (≈ 0.0373 µg/mL)	–	–
O=S(=O)(NCCO)c1ccc(-c2nnn(CC3CCCCC3)n2)cc1	0.1 (≈ 0.0365 µg/mL)	–	–
O=S(=O)(NCCO)c1ccc(-c2nnn(Cc3ccc(OC(F)(F)F)cc3)n2)cc1	0.1 (≈ 0.0443 µg/mL)	–	–
N#CCNS(=O)(=O)c1ccc(-c2cn(Cc3ccc(F)cn3)nn2)cc1	0.1 (≈ 0.0372 µg/mL)	–	–
O=C(CCC(F)(F)F)N1CCC(F)(c2cccnc2)CC1	–	< 150	10
COC(=O)CNS(=O)(=O)c1ccc(-c2nnn(Cc3ccncc3)n2)cc1	0.1 (≈ 0.0388 µg/mL)	–	–
Cc1cc(S(=O)(=O)NCCO)ccc1-c1nnn(CC2CCCCO2)n1 (configuration not stated)	0.1 (≈ 0.0381 µg/mL)	–	–
COc1cc(-c2nnn(Cc3ccc(F)cc3)n2)ccc1S(=O)(=O)NCCO	0.1 (≈ 0.0407 µg/mL)	–	–
O=S(=O)(NCCO)c1c(F)cc(-c2nnn(CC3CCCCO3)n2)cc1F (configuration not stated)	0.1 (≈ 0.0403 µg/mL)	–	–
COc1cc(-c2nnn(Cc3ccc(C#N)cc3)n2)ccc1S(=O)(=O)NCC(N)=O	0.1 (≈ 0.0427 µg/mL)	–	–
CNS(=O)(=O)c1ccc(-c2nnn(Cc3ccncc3)n2)cc1OC	0.1 (≈ 0.036 µg/mL)	–	–
